Target: T1, Cu/ZnSOD from porcine erythrocytes (Sus scrofa, UniProt P04178)
T1 construct: gene SOD1; native, purchased (Biodee Biotechnology), from porcine erythrocytes; homodimer; human structure 1HL4 used only for docking
Experiment: NBT photoreduction assay
Type: biochemical
Conditions: read-out: relative activity (%) at 100 nM MBI

T1 sequence (P04178 2-153): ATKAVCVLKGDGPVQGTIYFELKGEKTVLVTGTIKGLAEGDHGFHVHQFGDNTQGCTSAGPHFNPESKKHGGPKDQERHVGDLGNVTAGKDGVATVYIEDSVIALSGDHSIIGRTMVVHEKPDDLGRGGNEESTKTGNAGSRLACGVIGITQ

## S=c1[nH]c2ccccc2[nH]1 [MBI]
  activity at 0.1 µM: 89.3 ± 1.2%
